Experiments:
P388 = assay: Cytotoxicity against mouse P388 cells; type: functional, cell-based
A549 = assay: Cytotoxicity against human A549 cells; type: functional, cell-based

SMILES | IC50 (P388) | IC50 (A549)
C=C/C=C\[C@H](C)[C@H](OC(N)=O)[C@@H](C)[C@H](O)[C@@H](C)C/C(C)=C\[C@H](C)[C@@H](O)[C@@H](C)/C=C\[C@@H](O)C[C@@H]1OC(=O)C(C)=C[C@H]1C | 33.6 nM | 21.7 nM
CCCC[C@H](C)[C@H](OC(N)=O)[C@@H](C)[C@H](OC(C)=O)[C@@H](C)C/C(C)=C\[C@H](C)[C@@H](OC(C)=O)[C@@H](C)CCCC[C@@H]1OC(=O)[C@H](C)[C@@H](OC(C)=O)[C@H]1C | > 7050 nM | –
C=C/C=C\[C@H](C)[C@H](OC(N)=O)[C@@H](C)[C@H](OC(C)=O)[C@@H](C)C/C(C)=C\[C@H](C)[C@@H](OC(C)=O)[C@@H](C)/C=C\[C@@H](O)C[C@@H]1OC(=O)C(C)=C[C@H]1C | > 7590 nM | > 7590 nM
CCCC[C@H](C)[C@H](OC(N)=O)[C@@H](C)[C@H](O)[C@@H](C)C/C(C)=C\[C@H](C)[C@@H](O)[C@@H](C)CCCC[C@@H]1OC(=O)[C@H](C)[C@@H](O)[C@H]1C | 309 nM | 377 nM
CCCC[C@H](C)[C@H](OC(N)=O)[C@@H](C)[C@H](O)[C@@H](C)C/C(C)=C\[C@H](C)[C@@H](O)[C@@H](C)/C=C\[C@@H](O)C[C@@H]1OC(=O)[C@H](C)[C@@H](O)[C@H]1C | 10 nM | 8.4 nM
C=C/C=C\[C@H](C)[C@H](OC(N)=O)[C@@H](C)[C@H](OC(C)=O)[C@@H](C)C/C(C)=C\[C@H](C)[C@@H](OC(C)=O)[C@@H](C)/C=C\[C@H](C[C@@H]1OC(=O)C(C)=C[C@H]1C)OC(C)=O | 7080 nM | > 7130 nM
C=C/C=C\[C@H](C)[C@H](OC(N)=O)[C@@H](C)[C@H](OC(C)=O)[C@@H](C)C/C(C)=C\[C@H](C)[C@@H](O)[C@@H](C)/C=C\[C@@H](O)C[C@@H]1OC(=O)C(C)=C[C@H]1C | > 8100 nM | > 8100 nM
CCCC[C@H](C)[C@H](OC(N)=O)[C@@H](C)[C@H](O)[C@@H](C)CC(C)C[C@H](C)[C@@H](O)[C@@H](C)CC[C@@H](O)C[C@@H]1OC(=O)[C@H](C)[C@@H](O)[C@H]1C (stereo partly drawn) | > 8290 nM | > 8290 nM
CCCC[C@H](C)[C@H](OC(N)=O)[C@@H](C)[C@H](O)[C@@H](C)C/C(C)=C\[C@H](C)[C@@H](O)[C@@H](C)CC[C@@H](O)C[C@@H]1OC(=O)[C@H](C)[C@@H](O)[C@H]1C | 33.8 nM | 67.7 nM
C=C/C=C\[C@H](C)[C@H](OC(N)=O)[C@@H](C)[C@H](O)[C@@H](C)C/C(C)=C\[C@H](C)[C@H]1OC(=O)C=C[C@@H]1C | 3690 nM | 6770 nM
C=C/C=C\[C@H](C)[C@H](O)[C@@H](C)[C@H](O)[C@@H](C)C/C(C)=C\[C@H](C)[C@H]1OC(=O)C=C[C@@H]1C | > 12800 nM | > 12800 nM
C=C/C=C\[C@H](C)[C@H](OC(N)=O)[C@@H](C)[C@H](O)[C@@H](C)C/C(C)=C\[C@H](C)[C@@H](OC(C)=O)[C@@H](C)/C=C\[C@@H](O)C[C@@H]1OC(=O)C(C)=C[C@H]1C | 519 nM | 3130 nM
